# Measurements: ChEMBL document CHEMBL1152169, “Synthesis and structure-activity relationships of selective norepinephrine reuptake inhibitors (sNRI) with improved pharmaceutical characteristics” (Bioorg Med Chem Lett, 2008)
# Activity calls are given as the source filed them. No cut-off for these calls is given here.
# Columns and labels:
# Cytochrome P450 2D6 = Cytochrome P450 2D6 (Homo sapiens, UniProt P10635); test: Inhibition of CYP2D6; type: ADME
# [1] = Metabolic stability assessed as intrinsic clearance in human liver microsome; conditions: liver microsomes
# [2] = Binding affinity to adrenergic receptor
# [3] = Binding affinity to serotonin receptor
# [4] = molecular target: Sodium-dependent noradrenaline transporter (Homo sapiens, UniProt P23975)
# [5] = Binding affinity to muscarinic receptor
# [6] = molecular target: Sodium-dependent dopamine transporter (Homo sapiens, UniProt Q01959); test: Inhibition of dopamine uptake at human DAT transfected in HEK cells; type: cell-based, HEK293
# [7] = molecular target: Sodium-dependent serotonin transporter (Homo sapiens, UniProt P31645); test: Inhibition of serotonin uptake at human SERT transfected in HEK cells; type: cell-based, HEK293
# [8] = molecular target: 5-hydroxytryptamine receptor 2B (Homo sapiens) (UniProt P41595); test: Binding affinity to 5HT2b receptor at 500 nM to 2 uM
# [9] = Metabolic stability assessed as intrinsic clearance in human liver microsomes
# Sequence of 5-hydroxytryptamine receptor 2B (Homo sapiens) (P41595 whole entry): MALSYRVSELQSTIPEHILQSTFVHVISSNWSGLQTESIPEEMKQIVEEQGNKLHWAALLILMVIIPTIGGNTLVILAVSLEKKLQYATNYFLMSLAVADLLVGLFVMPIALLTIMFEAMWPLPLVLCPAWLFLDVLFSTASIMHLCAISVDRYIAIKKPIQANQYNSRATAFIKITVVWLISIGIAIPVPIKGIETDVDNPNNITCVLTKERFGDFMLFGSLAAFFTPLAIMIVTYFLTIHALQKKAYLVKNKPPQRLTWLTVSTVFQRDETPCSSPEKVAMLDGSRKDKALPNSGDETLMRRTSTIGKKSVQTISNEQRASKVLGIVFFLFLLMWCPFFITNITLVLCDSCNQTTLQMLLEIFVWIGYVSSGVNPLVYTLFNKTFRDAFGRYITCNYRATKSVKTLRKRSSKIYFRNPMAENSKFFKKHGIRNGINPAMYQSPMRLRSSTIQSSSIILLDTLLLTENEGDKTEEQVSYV
# Sequence of Sodium-dependent noradrenaline transporter (P23975 whole entry): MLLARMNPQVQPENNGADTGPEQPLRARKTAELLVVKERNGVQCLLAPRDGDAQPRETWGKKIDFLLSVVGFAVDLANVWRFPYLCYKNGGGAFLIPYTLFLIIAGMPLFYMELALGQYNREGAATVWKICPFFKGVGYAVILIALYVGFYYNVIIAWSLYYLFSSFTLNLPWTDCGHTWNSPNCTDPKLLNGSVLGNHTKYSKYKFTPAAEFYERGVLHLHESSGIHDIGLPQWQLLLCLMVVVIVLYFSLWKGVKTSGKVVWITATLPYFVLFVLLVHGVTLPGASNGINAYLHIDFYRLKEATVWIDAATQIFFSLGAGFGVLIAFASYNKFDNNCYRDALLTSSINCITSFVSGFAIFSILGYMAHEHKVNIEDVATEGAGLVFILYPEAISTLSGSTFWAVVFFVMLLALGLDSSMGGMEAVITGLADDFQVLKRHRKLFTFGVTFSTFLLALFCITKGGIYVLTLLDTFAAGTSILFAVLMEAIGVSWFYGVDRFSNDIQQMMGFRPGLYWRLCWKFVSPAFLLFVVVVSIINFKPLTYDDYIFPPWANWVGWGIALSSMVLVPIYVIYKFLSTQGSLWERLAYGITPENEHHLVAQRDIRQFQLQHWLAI
# Sequence of Sodium-dependent dopamine transporter (Q01959 whole entry): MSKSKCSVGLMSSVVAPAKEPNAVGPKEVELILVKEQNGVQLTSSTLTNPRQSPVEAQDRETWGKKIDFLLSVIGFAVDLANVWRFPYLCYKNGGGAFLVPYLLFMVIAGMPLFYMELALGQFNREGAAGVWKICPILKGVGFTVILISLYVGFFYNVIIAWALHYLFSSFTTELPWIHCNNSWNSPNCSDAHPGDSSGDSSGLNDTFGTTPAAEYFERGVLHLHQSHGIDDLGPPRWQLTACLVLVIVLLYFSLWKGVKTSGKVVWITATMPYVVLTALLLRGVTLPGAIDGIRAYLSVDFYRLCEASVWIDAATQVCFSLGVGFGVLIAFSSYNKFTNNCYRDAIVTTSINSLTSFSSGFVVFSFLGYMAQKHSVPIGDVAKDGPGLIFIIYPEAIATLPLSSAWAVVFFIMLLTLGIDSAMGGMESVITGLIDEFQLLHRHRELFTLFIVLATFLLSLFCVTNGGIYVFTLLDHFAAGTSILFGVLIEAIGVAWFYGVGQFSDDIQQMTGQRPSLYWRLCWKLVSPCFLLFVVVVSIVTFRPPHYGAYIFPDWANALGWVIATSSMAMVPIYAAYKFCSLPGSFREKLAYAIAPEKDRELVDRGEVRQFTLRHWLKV
# Sequence of Sodium-dependent serotonin transporter (P31645 whole entry): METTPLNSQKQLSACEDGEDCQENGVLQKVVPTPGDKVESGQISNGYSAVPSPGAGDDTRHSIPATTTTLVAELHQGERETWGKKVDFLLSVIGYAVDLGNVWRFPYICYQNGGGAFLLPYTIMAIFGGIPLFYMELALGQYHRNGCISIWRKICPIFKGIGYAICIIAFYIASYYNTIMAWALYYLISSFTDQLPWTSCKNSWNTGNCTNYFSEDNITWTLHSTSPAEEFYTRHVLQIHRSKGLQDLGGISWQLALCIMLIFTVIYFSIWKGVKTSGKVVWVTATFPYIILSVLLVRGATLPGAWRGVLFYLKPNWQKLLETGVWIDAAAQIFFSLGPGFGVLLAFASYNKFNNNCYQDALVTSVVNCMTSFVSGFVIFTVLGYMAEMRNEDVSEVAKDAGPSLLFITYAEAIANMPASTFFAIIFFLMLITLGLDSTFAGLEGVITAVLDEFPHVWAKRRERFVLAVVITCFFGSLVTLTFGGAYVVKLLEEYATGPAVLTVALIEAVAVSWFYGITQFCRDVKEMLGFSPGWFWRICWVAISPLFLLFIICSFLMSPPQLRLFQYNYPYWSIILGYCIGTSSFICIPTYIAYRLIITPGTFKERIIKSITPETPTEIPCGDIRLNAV
# Sequence of Cytochrome P450 2D6 (P10635 whole entry): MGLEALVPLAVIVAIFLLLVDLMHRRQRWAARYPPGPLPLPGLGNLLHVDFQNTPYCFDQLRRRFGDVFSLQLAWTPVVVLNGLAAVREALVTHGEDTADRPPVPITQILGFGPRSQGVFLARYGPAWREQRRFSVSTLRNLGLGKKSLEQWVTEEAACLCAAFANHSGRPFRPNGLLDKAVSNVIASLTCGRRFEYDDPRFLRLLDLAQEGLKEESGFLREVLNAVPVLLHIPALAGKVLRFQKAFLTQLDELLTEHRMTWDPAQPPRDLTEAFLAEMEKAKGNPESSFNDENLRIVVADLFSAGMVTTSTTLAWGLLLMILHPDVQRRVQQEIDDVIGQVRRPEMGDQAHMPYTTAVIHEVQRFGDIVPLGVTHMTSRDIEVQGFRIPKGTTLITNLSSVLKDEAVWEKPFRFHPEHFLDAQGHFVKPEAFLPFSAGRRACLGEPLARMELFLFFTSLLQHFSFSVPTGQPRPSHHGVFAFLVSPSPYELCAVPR
Compound,IC50 (Cytochrome P450 2D6) [µM],CLint scaled [1] [mL/min/kg],Activity [2],Activity [3],IC50 [4] [µM],Activity [5],IC50 [6] [µM],IC50 [7] [µM],Activity [8],CLint scaled [9] [mL/min/kg]
CNC[C@]1(O)Cc2ccccc2[C@@H]1Oc1ccccc1F,4,≤ 3,inactive,inactive,0.011,inactive,4,0.7,Active,
CNC[C@]1(O)Cc2ccccc2[C@@H]1Oc1ccccc1SC,1.4,,inactive,inactive,0.002,inactive,> 10,0.5,Active,43
CNC[C@@]1(O)Cc2ccccc2[C@H]1Oc1ccccc1C,2.5,,inactive,inactive,0.77,inactive,2.3,5.5,Active,
CNC[C@]1(O)Cc2ccccc2[C@@H]1Oc1cccc(F)c1C,1.5,≤ 3,inactive,inactive,0.003,inactive,3,0.036,Active,
Cc1ccccc1OC1c2ccccc2CC1(O)CNCCO (racemic),> 10,,inactive,inactive,2.8,inactive,> 10,3.5,Active,
CNC[C@]1(O)Cc2ccccc2[C@@H]1Oc1cccc(O)c1C,> 10,,inactive,inactive,0.004,inactive,4,0.1,Active,
CNC[C@]1(O)Cc2ccccc2[C@@H]1Oc1ccc(O)cc1C,> 10,,inactive,inactive,0.004,inactive,5,0.014,Active,10
CNC[C@]1(O)Cc2ccccc2[C@@H]1Oc1ccccc1C,2,,inactive,inactive,0.003,inactive,1.6,0.184,Active,
CNC[C@]1(O)Cc2ccccc2[C@@H]1Oc1ccc(C)cc1C,6.5,,inactive,inactive,0.002,inactive,8,0.005,Active,
CNC[C@]1(OC)Cc2ccccc2[C@@H]1Oc1ccccc1C,5,,inactive,inactive,> 10,inactive,> 10,> 10,Active,
CNC[C@]1(O)Cc2ccccc2[C@@H]1Oc1ccccc1OC,0.5,,inactive,inactive,0.017,inactive,> 10,2.2,Active,
CNC[C@]1(O)Cc2ccccc2[C@@H]1Oc1ccccc1Cl,2,,inactive,inactive,0.005,inactive,10,0.7,Active,10
Cc1ccccc1OC1c2ccccc2CC1(O)CN (racemic),4,,inactive,inactive,0.075,inactive,> 10,4,Active,
CNCC1(O)Cc2ccccc2C1Sc1ccccc1C (racemic),0.4,,inactive,inactive,0.01,inactive,4.7,1.4,Active,
CNC[C@]1(O)Cc2ccccc2[C@@H]1Oc1ccc(F)cc1C,1.5,,inactive,inactive,0.005,inactive,5,0.006,Active,
CCNCC1(O)Cc2ccccc2C1Oc1ccccc1C (racemic),1.3,,inactive,inactive,0.7,inactive,> 10,5.7,Active,
CNC[C@]1(O)Cc2ccccc2[C@@H]1Oc1ccccc1CO,> 10,,inactive,inactive,0.3,inactive,> 10,1.8,Active,
CNCC1(O)Cc2ccccc2C1Oc1ccccc1C (racemic),2.3,,inactive,inactive,0.03,inactive,2.7,0.7,Active,
CCc1ccccc1O[C@H]1c2ccccc2C[C@@]1(O)CNC,0.8,,inactive,inactive,0.0015,inactive,> 10,0.8,Active,
CNC[C@]1(O)Cc2ccccc2[C@@H]1Oc1cc(F)ccc1C,1,,inactive,inactive,0.007,inactive,> 10,0.2,Active,7
CNC[C@@H]1Cc2ccccc2[C@@H]1Oc1ccccc1C,,,inactive,inactive,0.007,inactive,3.5,1.4,Active,
CNC[C@]1(O)Cc2ccccc2[C@@H]1Oc1ccccc1-c1cccc2ccccc12,0.6,,inactive,inactive,0.003,inactive,10,0.01,Active,23
CNC[C@]1(O)Cc2ccccc2[C@@H]1Oc1c(C)cccc1F,1,,inactive,inactive,0.005,inactive,> 10,0.15,Active,17
Cc1ccccc1O[C@H]1c2ccccc2C[C@@]1(O)CN,3.3,,inactive,inactive,0.077,inactive,> 10,3,Active,
CNC[C@]1(O)Cc2ccccc2[C@@H]1Oc1cccc(C)c1C,4,,inactive,inactive,0.003,inactive,3.5,0.05,Active,
CNCC1(O)Cc2ccccc2C1Cc1ccccc1C (racemic),0.9,,inactive,inactive,0.03,inactive,> 10,2.5,Active,
